From patent US8512733B2, “Stents with drug-containing amphiphilic polymer coating” (Abbott Laboratories, priority 2001, dated 2013)

Assays:
[1] = pyrene fluorescence I3/I1 ratio in different environments; assay type: physicochemical; details: peaks at 383 nm (I3) and 373 nm (I1), excitation 335 nm, label = environment of the pyrene
Protocol: Zwitterionic polymer coatings were investigated by allowing pyrene to diffuse into the polymer and studying the degree to which it is taken up, and the effects on the ratio of the fluorescence band intensities to see if there is any significant indication of the type of environment present.
The solution was used to coat polymethylmethacrylate (PMMA) fluorescence cuvettes by simply pouring into the cuvette, draining, following by an oven curing at 70° C. overnight.
The fluorescence spectrum was recorded using an excitation wavelength of 335 nm and scanned from 350-440 nm on a PE LS 50B Luminescence Spectrophotometer. Subtraction of the spectrum of each coating in water was necessary to remove the interference of a small band at 380 nm present in all methacrylate systems.
Environment information could be obtained by comparing the ratio of the intensity of the peaks at 373 nm (I1) and 383 nm (I3) (I3/I1). Where I3/I1 was similar for polymer systems, the comparative amount of pyrene present could be estimated by the maximum intensity of I1; alternatively, the entire peak area may offer an alternative measure of the comparative amount of pyrene present in different coatings. It was important to mark the side of the cuvette to ensure the same orientations were achieved each time it was replaced in the spectrophotometer.
Pyrene solution added to the coated cuvettes was allowed to stand for 16 h, the cuvette emptied and washed thoroughly with ultrapure water, refilled with ultrapure water and the fluorescence spectrum recorded. The comparative maximum height of I1 was used to estimate the relative amounts of pyrene in the coatings. This was repeated for three cuvettes of each polymer and the average taken.

[2] = pyrene fluorescence; cited from earlier work
[3] = P is the octanol/water partition coefficient; cited from earlier work
porcine arteries = assay: In vivo test on estradiol loaded stents; details: one month
[4] = Estradiol elution studies at 25° C., non-flow system; assay type: physicochemical; details: at 4 hours, 5 ml PBS on rollers, 15 mm DD stents from Example 1.1
Protocol: Elution studies were carried out at 25° C. for […] in gently agitated PBS. This was done by placing 15 mm DD stents loaded with estradiol, from Example 1.1 individually in vials containing 5 ml phosphate buffered saline (PBS) on rollers. At various time intervals up to 7 hours a 1 ml aliquot was removed and replaced with 1 ml fresh PBS. The stents and water aliquots were measured, to give the amount of drug eluted and the amount of drug remaining on the stents.

[5] = Release of 17β-estradiol from stents, stirred 1000 ml PBS at 37° C.; assay type: physicochemical; details: five stents vigorously stirred in 1000 ml PBS at 37° C., 24 hour period
Protocol: The elution profile for 17β-estradiol, FIG. 6 from the stents produced in example 1.1, was assessed using an in-vitro test where five stents were vigorously stirred in a large volume (1000 ml) of PBS saline solution at 37° C. […] Aliquots of buffer were removed at various time points over a 24 hour period and analysed for 17β-estradiol content. When translated into in-vivo conditions, the release profile is predicted to be over a prolonged period of time.

[6] = Estradiol elution studies in flow-system at 37° C.; assay type: physicochemical; details: 100 ml/min, 500 ml PBS, 8 hour period
Protocol: The elution of estradiol was examined in a flow system at 37° C. and evaluated over an 8 hour period. PBS was maintained at 37° C. in six stirred reservoirs (500 ml each) within a water bath. A length of silicone tubing (3 mm internal diameter) was attached from each reservoir to one of six stent chambers (4 mm internal diameter 80 mm long) and back to the respective reservoir via a peristaltic pump. The system was pumped using a flow rate of 100 ml/min to reach equilibrium temperature of 37° C. The flow was stopped and two estradiol loaded 15 mm stents loaded as in Example 1 were placed in each of the six stent chambers, and flow recommenced. A stent was then removed at various time periods and wick dried. These were used to measure the amount of estradiol remaining on the stent. […]. Since the total volume of PBS passing over the stents in the flow model is […], it is likely that throughout the period the rate of desorption of drug from the stent was higher than the rate of absorption from the environment. This condition may not apply to the non-flow method.

For `O` [water], the I3/I1 ratio [1] is listed as 0.633 and the “I3/I1 ratio, literature value” [2] is listed as 0.63.

For `C[C@H]1C[C@@H]2[C@H]([C@@H](O)C[C@@]3(C)[C@H]2CC[C@]3(O)C(=O)CO)[C@@]2(C)C=CC(=O)C=C12` [MP, 6α-methylprednisolone], the “log P” value [3] is given as 1.42.

With `C[C@]12CC[C@@H]3c4ccc(O)cc4CC[C@H]3[C@@H]1CC[C@@H]2O` [estradiol, 17β-estradiol] the Re-endothelialization scores (porcine arteries) was “does not inhibit the healing process”, the “estradiol still remaining on the stent” value [4] was 62% and the release from stent [5] was “sustained release”. For the same molecule, the “elution compared with Example 2” value [6] was “eluted relatively more quickly”.

Molecule `C=C(C)C(=O)OCCCCCCCCCCCC` [lauryl methacrylate] has an I3/I1 ratio [1] of 1.029.

Work on `C=CC(=O)OCc1ccccc1` [benzyl acrylate monomer, benzyl acrylate] yielded an I3/I1 ratio [1] of 0.75.
